Assay results as given in the supplement of paper PMC4932681.

Columns and labels:
BT-474 Tam1 [1] = assay: drug sensitivity score (DSS) (DSS (dimensionless)); higher = more sensitive; extreme values may be limits of the assay; settings: 4-OH-tamoxifen in medium 1 µM; 72 h
Method in brief: (§1)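 Drug sensitivity score, relative IC50 as the curve midpoint, and top-dose inhibition were derived from logistic dose–response fits in the Breeze pipeline. These fits used CellTiter-Glo viability, read on a PHERAstar and normalised to vehicle-only and positive controls. Breast cancer cell lines and resistant derivatives had been incubated for 72 h at 37 °C in 384-well plates holding library drugs at five concentrations spanning a 10 000-fold range. Resistant lines were grown in medium with 1 μM of the selecting drug.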

BT-474 Tam2 [2] = assay: as above; settings: 4-OH-tamoxifen in medium 1 µM; 72 h
Method in brief: as §1

BT-474 [3] = assay: as above; settings: 72 h
Method in brief: as §1

MCF-7 Tam1 = assay: as above; settings: 4-OH-tamoxifen in medium 1 µM; 72 h
Method in brief: as §1

MCF-7 [4] = assay: as above; settings: 72 h
Method in brief: as §1

T-47D Tam1 [5] = assay: as above; settings: 4-OH-tamoxifen in medium 1 µM; 72 h
Method in brief: as §1

T-47D Tam2 [6] = assay: as above; settings: 4-OH-tamoxifen in medium 1 µM; 72 h
Method in brief: as §1

T-47D [7] = assay: as above; settings: 72 h
Method in brief: as §1

ZR-75-1 Tam1 [8] = assay: as above; settings: 4-OH-tamoxifen in medium 1 µM; 72 h
Method in brief: as §1

ZR-75-1 Tam2 [9] = assay: as above; settings: 4-OH-tamoxifen in medium 1 µM; 72 h
Method in brief: as §1

ZR-75-1 [10] = assay: as above; settings: 72 h
Method in brief: as §1

BT-474 Tam1 [11] = assay: relative IC50 (midpoint of fitted logistic curve, plateau may be below 50% inhibition; CellTiter-Glo viability); higher = less potent; settings: 4-OH-tamoxifen in medium 1 µM; 72 h
Method in brief: as §1

BT-474 Tam2 [12] = assay: as above; settings: 4-OH-tamoxifen in medium 1 µM; 72 h
Method in brief: as §1

BT-474 [13] = assay: as above; settings: 72 h
Method in brief: as §1

MCF-7 [14] = assay: as above; settings: 72 h
Method in brief: as §1

T-47D Tam1 [15] = assay: as above; settings: 4-OH-tamoxifen in medium 1 µM; 72 h
Method in brief: as §1

T-47D Tam2 [16] = assay: as above; settings: 4-OH-tamoxifen in medium 1 µM; 72 h
Method in brief: as §1

T-47D [17] = assay: as above; settings: 72 h
Method in brief: as §1

ZR-75-1 Tam1 [18] = assay: as above; settings: 4-OH-tamoxifen in medium 1 µM; 72 h
Method in brief: as §1

ZR-75-1 Tam2 [19] = assay: as above; settings: 4-OH-tamoxifen in medium 1 µM; 72 h
Method in brief: as §1

ZR-75-1 [20] = assay: as above; settings: 72 h
Method in brief: as §1

Structure (SMILES) | drug sensitivity score (BT-474 Tam1 [1]) | drug sensitivity score (BT-474 Tam2 [2]) | drug sensitivity score (BT-474 [3]; 4-OH-tamoxifen in medium 0 µM) | drug sensitivity score (BT-474 [3]; 4-OH-tamoxifen in medium 1 µM) | drug sensitivity score (MCF-7 Tam1) | drug sensitivity score (MCF-7 [4]; 4-OH-tamoxifen in medium 0 µM) | drug sensitivity score (MCF-7 [4]; 4-OH-tamoxifen in medium 1 µM) | drug sensitivity score (T-47D Tam1 [5]) | drug sensitivity score (T-47D Tam2 [6]) | drug sensitivity score (T-47D [7]; 4-OH-tamoxifen in medium 0 µM) | drug sensitivity score (T-47D [7]; 4-OH-tamoxifen in medium 1 µM) | drug sensitivity score (ZR-75-1 Tam1 [8]) | drug sensitivity score (ZR-75-1 Tam2 [9]) | drug sensitivity score (ZR-75-1 [10]; 4-OH-tamoxifen in medium 0 µM) | drug sensitivity score (ZR-75-1 [10]; 4-OH-tamoxifen in medium 1 µM) | relative IC50 (BT-474 Tam1 [11]) | relative IC50 (BT-474 Tam2 [12]) | relative IC50 (BT-474 [13]; 4-OH-tamoxifen in medium 0 µM) | relative IC50 (BT-474 [13]; 4-OH-tamoxifen in medium 1 µM) | relative IC50 (MCF-7 [14]; 4-OH-tamoxifen in medium 0 µM) | relative IC50 (MCF-7 [14]; 4-OH-tamoxifen in medium 1 µM) | relative IC50 (T-47D Tam1 [15]) | relative IC50 (T-47D Tam2 [16]) | relative IC50 (T-47D [17]; 4-OH-tamoxifen in medium 0 µM) | relative IC50 (T-47D [17]; 4-OH-tamoxifen in medium 1 µM) | relative IC50 (ZR-75-1 Tam1 [18]) | relative IC50 (ZR-75-1 Tam2 [19]) | relative IC50 (ZR-75-1 [20]; 4-OH-tamoxifen in medium 0 µM) | relative IC50 (ZR-75-1 [20]; 4-OH-tamoxifen in medium 1 µM)
Cn1cc(CNCC2CCN(c3ncc(C(=O)NO)cn3)CC2)c2ccccc21 | 21.3 | 20.9 | 17.3 | 24.5 | 1.39 | 16.4 | 15.2 | 13.5 | 8.78 | 15.4 | 21.5 | 10 | 9.02 | 9.45 | 5.44 | 14.5 nM | 14.9 nM | 21.6 nM | 8.56 nM | 25.4 nM | 34.7 nM | 43.9 nM | 91.3 nM | 43.5 nM | 13.2 nM | 6.19 nM | 20.3 nM | 17.8 nM | 30 nM
N#Cc1ccc(COC[C@H]2O[C@@H](n3c(NCc4ccc(Cl)c(Cl)c4)nc4c(N)ncnc43)[C@H](O)[C@@H]2O)cc1 | 3.95 | 3.17 | 0.615 | 4.11 | 0.584 | 1.74 | 2.54 | 5.15 | 2.46 | 1.88 | 1.02 | 2.54 | 2.56 | 4.24 | 4.03 | 1920 nM | 1730 nM | – | 2750 nM | 4190 nM | 3250 nM | 1170 nM | 2000 nM | 3590 nM | – | 3000 nM | 3350 nM | 2070 nM | 1870 nM
CN(C)C[C@@H]1CCn2cc(c3ccccc32)C2=C(C(=O)NC2=O)c2cn(c3ccccc23)CCO1 | 9.22 | 6.47 | 4.1 | 8.42 | 1.31 | 7.13 | 4.11 | 6.85 | 4.71 | 6.79 | 6.1 | 3.13 | 4.71 | 4.14 | 6.47 | 1590 nM | 2610 nM | 3260 nM | 1860 nM | 2350 nM | 2940 nM | 1430 nM | 2530 nM | 1540 nM | 2780 nM | 1400 nM | 942 nM | 1320 nM | 1560 nM
